Laboratory results from PMC9403976, “Elucidating the path to Plasmodium prolyl-tRNA synthetase inhibitors that overcome halofuginone resistance” (Nature Communications, 2022).
“And” between values parts separate entries of the source, which are not always exact repeats. Equal values may be shown once. Read-outs that look alike come from different tables or passages of the source.

What was measured:
[1] = molecular target: HsProRS (Homo sapiens, UniProt P07814); test: TR-FRET ligand displacement assay with tracer MAT379 (CoraFluor-1-Halo and anti-His6 antibody formats); format: binding; set-up: made in house; host or cells: E. coli SoluBL-21; conditions: for TR-FRET dose-response, normalized signal (SI Fig 11): individual replicates; for normalized TR-FRET signal (dose-response replicates): SI Fig 15, antibody format
Chain of HsProRS (P07814 996-1512): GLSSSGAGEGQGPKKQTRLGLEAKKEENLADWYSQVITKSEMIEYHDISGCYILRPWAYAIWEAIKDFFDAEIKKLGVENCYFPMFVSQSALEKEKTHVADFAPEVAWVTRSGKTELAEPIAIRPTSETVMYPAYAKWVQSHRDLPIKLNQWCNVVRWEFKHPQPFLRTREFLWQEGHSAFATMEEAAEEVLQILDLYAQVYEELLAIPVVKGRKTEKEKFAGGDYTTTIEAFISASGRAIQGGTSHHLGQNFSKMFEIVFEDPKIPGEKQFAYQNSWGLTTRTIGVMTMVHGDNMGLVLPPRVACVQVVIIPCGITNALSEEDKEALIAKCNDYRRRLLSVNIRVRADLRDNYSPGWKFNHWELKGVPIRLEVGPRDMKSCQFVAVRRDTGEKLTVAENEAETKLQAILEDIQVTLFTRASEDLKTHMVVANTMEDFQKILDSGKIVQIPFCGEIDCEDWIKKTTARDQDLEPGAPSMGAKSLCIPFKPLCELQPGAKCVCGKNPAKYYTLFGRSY

[2] = molecular target: T1, PfcProRS (Plasmodium falciparum, UniProt Q8I5R7); format: binding; conditions: for dose-response signal (normalized), SI Fig 8: single replicates, listed as Halofuginone (1)
T1 construct: made in house; host or cells: E. coli SoluBL-21
T1 sequence (Q8I5R7 249-746): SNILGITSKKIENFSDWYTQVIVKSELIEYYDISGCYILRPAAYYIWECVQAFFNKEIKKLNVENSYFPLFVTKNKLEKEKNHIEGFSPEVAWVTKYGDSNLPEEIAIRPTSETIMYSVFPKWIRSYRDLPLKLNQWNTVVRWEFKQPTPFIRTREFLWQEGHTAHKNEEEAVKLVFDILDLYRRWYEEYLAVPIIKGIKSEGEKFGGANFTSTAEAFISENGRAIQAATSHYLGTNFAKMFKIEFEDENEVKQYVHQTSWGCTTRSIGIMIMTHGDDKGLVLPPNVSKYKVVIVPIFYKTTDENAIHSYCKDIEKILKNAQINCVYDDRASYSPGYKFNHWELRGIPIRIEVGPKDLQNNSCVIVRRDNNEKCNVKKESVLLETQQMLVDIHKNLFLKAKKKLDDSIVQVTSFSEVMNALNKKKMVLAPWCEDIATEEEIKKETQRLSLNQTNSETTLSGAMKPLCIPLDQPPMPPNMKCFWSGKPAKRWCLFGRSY

[3] = system: P. falciparum Dd2-2D4 NCP26 selections S1-3; test: ABS growth assay on bulk populations and clones from NCP26 resistance selections S1-3; format: cell-based, Plasmodium falciparum; conditions: for EC50: Plasmodium falciparum; for Fold-change Resistance: independent experiments
Procedure: In short, P. falciparum erythrocytic-stage parasites at 1% parasitemia and 1% hematocrit in RPMI + 0.5% Albumax were seeded at 40 μL/well in 384-well plates with test compounds in triplicate, dose-response format with 10 μM dihydroartemisinin as a kill-control and blank (no compound) wells as a growth-control. […] After 72 h, growth was quantified by measuring fluorescence (Molecular Devices SpectraMax iD5) following SYBR Green 1 staining. Data were analyzed in Excel and plotted in PRISM (V. 8.4.3–9.1.0, GraphPad).
This cycle was repeated for ~50 generations (~100 days), corresponding to 5–6 cycles of drug pressure.
Clonal parasites were isolated from each selection flask by limiting dilution of ring stage parasites in 96-well plates to an average of 0.8 and 0.2 parasites per well.

[4] = system: halofuginone-induced P. falciparum (elevated proline homeostasis); test: P. falciparum ABS growth assay, SYBR Green, 72 h, halofuginone-induced parasites; format: cell-based, Plasmodium falciparum; conditions: Halofuginone-Induced
Method in brief: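 Dd2-derived erythrocytic-stage parasites at 1% parasitemia and 1% hematocrit in RPMI + 0.5% Albumax were exposed to compounds in triplicate dose-response. Controls were 10 μM dihydroartemisinin (kill) and no-compound wells (growth). Growth was read by SYBR Green 1 fluorescence after 72 h and used to derive EC50.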

[5] = Log[inhibitor] (M) -7.602, listed as Halofuginone (1)

SMILES: O=C(CC1NCCCC1O)Cn1cnc2cc(Br)c(Cl)cc2c1=O (centres unmarked) [Halofuginone]
- normalized TR-FRET ligand displacement signal, dose-response replicates (SI Fig 6) ([1]; Log[inhibitor] (M) -8.585, listed as Halofuginone (1)): 1.04E+00 and 1.03E+00 and 1.02E+00
- normalized TR-FRET signal (Fig 2j) ([1]; Log[inhibitor] (M) -8.612): 1.10E+00 and 1.01E+00 and 9.98E-01
- TR-FRET dose-response, normalized signal (SI Fig 11) ([1]; Log[inhibitor] (M) -8.612, listed as Halofuginone (1)): 9.43E-01 and 9.93E-01 and 8.80E-01
- normalized TR-FRET signal (Fig 2j) ([1]; Log[inhibitor] (M) -8.913): 1.04E+00 and 1.15E+00 and 9.02E-01
- TR-FRET dose-response, normalized signal (SI Fig 11) ([1]; Log[inhibitor] (M) -8.913, listed as Halofuginone (1)): 9.29E-01 and 9.23E-01 and 1.01E+00
- normalized TR-FRET signal (Fig 2j) ([1]; Log[inhibitor] (M) -9.214): 9.13E-01 and 9.87E-01 and 1.00E+00
- TR-FRET dose-response, normalized signal (SI Fig 11) ([1]; Log[inhibitor] (M) -9.214, listed as Halofuginone (1)): 1.03E+00 and 9.64E-01 and 9.56E-01
- normalized TR-FRET signal (dose-response replicates) ([1]; Log[inhibitor] (M) -7, listed as Halofuginone (1)): -5.10E-02 and 1.45E-01 and 6.11E-02 and -8.68E-02 and 8.71E-02 and -1.63E-01
- normalized TR-FRET signal (dose-response replicates) ([1]; Log[inhibitor] (M) -7.301, listed as Halofuginone (1)): -1.11E-01 and 1.65E-02 and 1.81E-01 and 1.03E-01 and -9.48E-02 and 1.44E-01
- normalized TR-FRET signal (dose-response replicates) [1, 5]: -2.32E-02 and 2.15E-01 and 1.05E-01 and 1.32E-01 and 1.04E-01 and 2.19E-02
- normalized TR-FRET signal (dose-response replicates) ([1]; Log[inhibitor] (M) -7.902, listed as Halofuginone (1)): 1.55E-01 and 5.85E-02 and 2.37E-01 and 1.20E-01 and -3.85E-02 and 1.09E-01
- normalized TR-FRET signal (dose-response replicates) ([1]; Log[inhibitor] (M) -8.206, listed as Halofuginone (1)): 1.08E-02 and 1.11E-01 and 2.70E-01 and 1.81E-01 and 6.79E-02 and 2.75E-01
- normalized TR-FRET signal (dose-response replicates) ([1]; Log[inhibitor] (M) -8.507, listed as Halofuginone (1)): 1.46E-01 and 1.20E-01 and 1.73E-01 and 3.30E-01 and 1.53E-01 and 2.25E-01
- normalized TR-FRET signal (dose-response replicates) ([1]; Log[inhibitor] (M) -8.797, listed as Halofuginone (1)): 4.78E-02 and 3.34E-01 and 2.48E-01 and 1.28E-01 and 3.36E-01 and 3.00E-01
- normalized TR-FRET signal (dose-response replicates) ([1]; Log[inhibitor] (M) -9.098, listed as Halofuginone (1)): 4.47E-01 and 3.74E-01 and 3.80E-01 and 4.11E-01 and 4.02E-01 and 4.65E-01
- normalized TR-FRET signal (dose-response replicates) ([1]; Log[inhibitor] (M) -9.407, listed as Halofuginone (1)): 2.38E-01 and 7.71E-01 and 7.58E-01 and 8.49E-01 and 6.67E-01 and 6.46E-01
- normalized TR-FRET signal (dose-response replicates) ([1]; Log[inhibitor] (M) -9.708, listed as Halofuginone (1)): 8.31E-01 and 9.16E-01 and 9.30E-01 and 9.90E-01 and 7.66E-01 and 7.98E-01
- normalized TR-FRET signal (dose-response replicates) ([1]; Log[inhibitor] (M) -10.018, listed as Halofuginone (1)): 7.34E-01 and 7.78E-01 and 9.27E-01 and 9.57E-01 and 7.69E-01 and 9.42E-01
- normalized TR-FRET signal (dose-response replicates) ([1]; Log[inhibitor] (M) -10.319, listed as Halofuginone (1)): 1.03E+00 and 8.60E-01 and 1.21E+00 and 9.50E-01 and 1.14E+00 and 9.79E-01
- normalized TR-FRET signal (dose-response replicates) ([1]; Log[inhibitor] (M) -10.62, listed as Halofuginone (1)): 1.02E+00 and 8.83E-01 and 9.73E-01 and 1.04E+00 and 9.53E-01 and 9.56E-01
- normalized TR-FRET signal (dose-response replicates) ([1]; Log[inhibitor] (M) -10.921, listed as Halofuginone (1)): 1.01E+00 and 1.12E+00 and 1.14E+00 and 9.45E-01 and 8.05E-01 and 9.06E-01
- normalized TR-FRET signal (dose-response replicates) ([1]; Log[inhibitor] (M) -11.098, listed as Halofuginone (1)): 9.11E-01 and 1.15E+00 and 1.13E+00 and 1.03E+00 and 9.58E-01 and 9.14E-01
- binding mode with respect to substrates (ATP, proline) [2]: ATP-uncompetitive binding
- fold increased affinity in the presence of ATP ([2]; 500 μM ATP vs 0 μM ATP): > 6000 fold
- dose-response signal (normalized), SI Fig 8 ([2]; Log[inhibitor] (M) -5.000): 7.25E-01 and 6.60E-01 and 7.89E-01
- dose-response signal (normalized), SI Fig 8 ([2]; Log[inhibitor] (M) -5.258): 8.77E-01 and 7.58E-01 and 8.28E-01
- dose-response signal (normalized), SI Fig 8 ([2]; Log[inhibitor] (M) -5.517): 8.36E-01 and 8.59E-01 and 9.08E-01
- dose-response signal (normalized), SI Fig 8 ([2]; Log[inhibitor] (M) -5.775): 9.71E-01 and 9.45E-01 and 1.00E+00
- dose-response signal (normalized), SI Fig 8 ([2]; Log[inhibitor] (M) -6.018): 9.98E-01 and 1.00E+00 and 1.01E+00
- dose-response signal (normalized), SI Fig 8 ([2]; Log[inhibitor] (M) -6.281): 9.70E-01 and 1.00E+00 and 9.36E-01
- dose-response signal (normalized), SI Fig 8 ([2]; Log[inhibitor] (M) -6.535): 9.87E-01 and 8.91E-01 and 9.43E-01
- dose-response signal (normalized), SI Fig 8 ([2]; Log[inhibitor] (M) -6.796): 1.03E+00 (2×) and 1.00E+00
- dose-response signal (normalized), SI Fig 8 ([2]; Log[inhibitor] (M) -7.056): 9.55E-01 and 1.03E+00 (2×)
- dose-response signal (normalized), SI Fig 8 ([2]; Log[inhibitor] (M) -7.319): 1.02E+00 (2×) and 9.30E-01
- dose-response signal (normalized), SI Fig 8 ([2]; Log[inhibitor] (M) -7.553): 9.85E-01 and 1.03E+00 and 9.40E-01
- dose-response signal (normalized), SI Fig 8 ([2]; Log[inhibitor] (M) -7.796): 9.66E-01 and 1.04E+00 and 1.00E+00
- dose-response signal (normalized), SI Fig 8 ([2]; Log[inhibitor] (M) -8.097): 1.01E+00 and 9.81E-01 and 1.00E+00
- dose-response signal (normalized), SI Fig 8 ([2]; Log[inhibitor] (M) -8.398): 9.48E-01 and 1.10E+00 and 1.01E+00
- dose-response signal (normalized), SI Fig 8 ([2]; Log[inhibitor] (M) -8.585): 1.08E+00 and 9.61E-01 and 9.66E-01
- PfcProRS -- best Kd ([2]; SI Fig 16a, values on -log scale): 9.298
- EC50 ([3]; DD2, cell line S1 - Clone A8, read-out: EC50 [nM] mean): 0.641 nM
- EC50 ([3]; DD2, cell line S1 - bulk population, read-out: EC50 [nM] mean): 0.951 nM
- EC50 ([3]; DD2, cell line S2 - Clone A3, read-out: EC50 [nM] mean): 0.36 nM
- EC50 ([3]; DD2, cell line S2 - Clone B9, read-out: EC50 [nM] mean): 0.694 nM
- EC50 ([3]; DD2, cell line S2 - Clone C5, read-out: EC50 [nM] mean): 0.439 nM
- EC50 ([3]; DD2, cell line S2 - bulk population, read-out: EC50 [nM] mean): 0.432 nM
- EC50 ([3]; DD2, cell line S3 - Clone B3, read-out: EC50 [nM] mean): 2.51 nM
- EC50 ([3]; DD2, cell line S3 - Clone B7, read-out: EC50 [nM] mean): 2.01 nM
- EC50 ([3]; DD2, cell line S3 - bulk population, read-out: EC50 [nM] mean): 2.56 nM
- EC50 ([3]; DD2, read-out: EC50 [nM] mean, cell line S3 - Clone B2): 2.75 nM
- Fold-change Resistance ([3]; S1 - Clone A8): 0.97 and 0.75 and 1.48
- Fold-change Resistance ([3]; S2 - Clone B9): 0.89 and 1.08
- Fold-change Resistance ([3]; S2 - Clone C5): 0.56 and 0.68
- Fold-change Resistance ([3]; S3 - Clone B2): 3.65 and 3.48
- Fold-change Resistance ([3]; S3 - Clone B3): 3.93 and 2.72 and 3.23
- Fold-change Resistance ([3]; S3 - Clone B7): 2.66 and 3.07 and 3.15
- parasite growth, replicate wells (Fig 1b) ([4]; Log[inhibitor] (M) -7.000): 1.00E+00
- parasite growth, replicate wells (Fig 1b) ([4]; Log[inhibitor] (M) -7.301): 6.00E+00
- parasite growth, replicate wells (Fig 1b) [4, 5]: 2.30E+01 and 2.20E+01 (2×)
- parasite growth, replicate wells (Fig 1b) ([4]; Log[inhibitor] (M) -7.903, listed as Halofuginone (1)): 8.60E+01 (2×) and 9.10E+01
- parasite growth, replicate wells (Fig 1b) ([4]; Log[inhibitor] (M) -8.204, listed as Halofuginone (1)): 1.04E+02 and 1.02E+02 (2×)
- parasite growth, replicate wells (Fig 1b) ([4]; Log[inhibitor] (M) -8.505, listed as Halofuginone (1)): 1.05E+02 and 1.03E+02 and 9.50E+01
- parasite growth, replicate wells (Fig 1b) ([4]; Log[inhibitor] (M) -8.806, listed as Halofuginone (1)): 9.20E+01 and 9.40E+01 and 9.50E+01
- parasite growth, replicate wells (Fig 1b) ([4]; Log[inhibitor] (M) -9.107, listed as Halofuginone (1)): 9.60E+01 and 9.70E+01 and 9.40E+01
- parasite growth, replicate wells (Fig 1b) ([4]; Log[inhibitor] (M) -9.408, listed as Halofuginone (1)): 9.80E+01 and 9.60E+01 and 9.50E+01
- parasite growth, replicate wells (Fig 1b) ([4]; Log[inhibitor] (M) -9.709, listed as Halofuginone (1)): 9.90E+01 and 1.00E+02 and 9.80E+01
- parasite growth, replicate wells (Fig 1b) ([4]; Log[inhibitor] (M) -10.010, listed as Halofuginone (1)): 1.00E+02 and 9.60E+01 and 9.90E+01
- parasite growth, replicate wells (Fig 1b) ([4]; Log[inhibitor] (M) -10.311, listed as Halofuginone (1)): 9.90E+01 (2×) and 1.00E+02
